Each structure is given as a SMILES string.
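Note: spheroids exposed to compounds for seven days; 100% = DMSO vehicle control viability.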

One assay concerns 889142-216-R-J1-PDC complex spheroid viability. The assay is described as follows: Anticancer human tumor 889142-216-R-J1-PDC patient-derived bladder carcinoma cell line growth inhibition [POLQ]. The settings on record: second compound 3.16 µM; first compound 0.1 µM; stronger effect = lower value. The essentials: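 Growth inhibition in 3D: complex spheroids (tumor PDC, HUVEC, MSC) treated with POLQ inhibitor combinations; where Cmax unknown, highest tested concentration 10 microM, except SN-38 at 1 microM.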
Turning to `CCc1cc2c(N3CCc4c(cc(Cn5ccnc5)cc4-c4cn(C)nc4C(F)(F)F)C3=O)cc(C)nc2c(OC)n1` + Cc1cccc(N(C)C(=O)C2C(O)CCN2c2nc(C)cc(C(F)(F)F)c2C#N)c1, the viability, T/C was 121%.

Turning to `COc1cc2cc(C(=O)CCC(=O)O)sc2cc1OC` + Cc1cccc(N(C)C(=O)C2C(O)CCN2c2nc(C)cc(C(F)(F)F)c2C#N)c1, the viability, T/C was 85.8%.

Staying with this assay, now noted: second compound 3.16 µM; first compound 0.316 µM; stronger effect = lower value.
Consider `C#Cc1c(F)ccc2cc(O)cc(-c3ncc4c(N5CC6CCC(C5)N6)nc(OCC56CCCN5CC(F)C6)nc4c3F)c12` (configuration not stated) + Cc1cccc(N(C)C(=O)C2C(O)CCN2c2nc(C)cc(C(F)(F)F)c2C#N)c1, for which the viability, T/C was 64.8%.

`C=CC(=O)N1CCN(c2nc(=O)n(-c3c(C)ccnc3C(C)C)c3nc(-c4c(O)cccc4F)c(F)cc23)C(C)C1` (configuration not stated) + Cc1cccc(N(C)C(=O)C2C(O)CCN2c2nc(C)cc(C(F)(F)F)c2C#N)c1: the viability, T/C is 93.8%.

For the molecule `CCc1cc2c(N3CCc4c(cc(Cn5ccnc5)cc4-c4cn(C)nc4C(F)(F)F)C3=O)cc(C)nc2c(OC)n1` + Cc1cccc(N(C)C(=O)C2C(O)CCN2c2nc(C)cc(C(F)(F)F)c2C#N)c1, the viability, T/C was 114%.

With `COc1cc2cc(C(=O)CCC(=O)O)sc2cc1OC` + Cc1cccc(N(C)C(=O)C2C(O)CCN2c2nc(C)cc(C(F)(F)F)c2C#N)c1, the viability, T/C is 89.7%.

Staying with this assay, now noted: second compound 3.16 µM; first compound 1 µM; stronger effect = lower value.
For the molecule `C#Cc1c(F)ccc2cc(O)cc(-c3ncc4c(N5CC6CCC(C5)N6)nc(OCC56CCCN5CC(F)C6)nc4c3F)c12` (configuration not stated) + Cc1cccc(N(C)C(=O)C2C(O)CCN2c2nc(C)cc(C(F)(F)F)c2C#N)c1, the viability, T/C is 74%.

Take `C=CC(=O)N1CCN(c2nc(=O)n(-c3c(C)ccnc3C(C)C)c3nc(-c4c(O)cccc4F)c(F)cc23)C(C)C1` (configuration not stated) + Cc1cccc(N(C)C(=O)C2C(O)CCN2c2nc(C)cc(C(F)(F)F)c2C#N)c1: the viability, T/C was 97.2%.

With `CCc1cc2c(N3CCc4c(cc(Cn5ccnc5)cc4-c4cn(C)nc4C(F)(F)F)C3=O)cc(C)nc2c(OC)n1` + Cc1cccc(N(C)C(=O)C2C(O)CCN2c2nc(C)cc(C(F)(F)F)c2C#N)c1, the viability, T/C is 94.9%.

Consider `COc1cc2cc(C(=O)CCC(=O)O)sc2cc1OC` + Cc1cccc(N(C)C(=O)C2C(O)CCN2c2nc(C)cc(C(F)(F)F)c2C#N)c1, for which the viability, T/C was 94.4%.

Staying with this assay, now noted: second compound 3.16 µM; first compound 3.16 µM; stronger effect = lower value.
In the case of `C#Cc1c(F)ccc2cc(O)cc(-c3ncc4c(N5CC6CCC(C5)N6)nc(OCC56CCCN5CC(F)C6)nc4c3F)c12` (configuration not stated) + Cc1cccc(N(C)C(=O)C2C(O)CCN2c2nc(C)cc(C(F)(F)F)c2C#N)c1, the viability, T/C is 72.5%.

Turning to `C=CC(=O)N1CCN(c2nc(=O)n(-c3c(C)ccnc3C(C)C)c3nc(-c4c(O)cccc4F)c(F)cc23)C(C)C1` (configuration not stated) + Cc1cccc(N(C)C(=O)C2C(O)CCN2c2nc(C)cc(C(F)(F)F)c2C#N)c1, the viability, T/C was 138%.

Consider `CCc1cc2c(N3CCc4c(cc(Cn5ccnc5)cc4-c4cn(C)nc4C(F)(F)F)C3=O)cc(C)nc2c(OC)n1` + Cc1cccc(N(C)C(=O)C2C(O)CCN2c2nc(C)cc(C(F)(F)F)c2C#N)c1, for which the viability, T/C was 112%.

Take `COc1cc2cc(C(=O)CCC(=O)O)sc2cc1OC` + Cc1cccc(N(C)C(=O)C2C(O)CCN2c2nc(C)cc(C(F)(F)F)c2C#N)c1: the viability, T/C was 104%.

Staying with this assay, now noted: second compound 3.16 µM; first compound 10 µM; stronger effect = lower value.
In the case of `C#Cc1c(F)ccc2cc(O)cc(-c3ncc4c(N5CC6CCC(C5)N6)nc(OCC56CCCN5CC(F)C6)nc4c3F)c12` (configuration not stated) + Cc1cccc(N(C)C(=O)C2C(O)CCN2c2nc(C)cc(C(F)(F)F)c2C#N)c1, the viability, T/C was 30.5%.

For the molecule `C=CC(=O)N1CCN(c2nc(=O)n(-c3c(C)ccnc3C(C)C)c3nc(-c4c(O)cccc4F)c(F)cc23)C(C)C1` (configuration not stated) + Cc1cccc(N(C)C(=O)C2C(O)CCN2c2nc(C)cc(C(F)(F)F)c2C#N)c1, the viability, T/C was 87.9%.

Consider `CCc1cc2c(N3CCc4c(cc(Cn5ccnc5)cc4-c4cn(C)nc4C(F)(F)F)C3=O)cc(C)nc2c(OC)n1` + Cc1cccc(N(C)C(=O)C2C(O)CCN2c2nc(C)cc(C(F)(F)F)c2C#N)c1, for which the viability, T/C is 69.9%.

In the case of `COc1cc2cc(C(=O)CCC(=O)O)sc2cc1OC` + Cc1cccc(N(C)C(=O)C2C(O)CCN2c2nc(C)cc(C(F)(F)F)c2C#N)c1, the viability, T/C is 78.9%.

The assay is the same for the next values; noted with them: second compound 10 µM; first compound 0.0316 µM; stronger effect = lower value.
On to `C#Cc1c(F)ccc2cc(O)cc(-c3ncc4c(N5CC6CCC(C5)N6)nc(OCC56CCCN5CC(F)C6)nc4c3F)c12` (configuration not stated) + Cc1cccc(N(C)C(=O)C2C(O)CCN2c2nc(C)cc(C(F)(F)F)c2C#N)c1, for which the viability, T/C is 79.3%.

Turning to `C=CC(=O)N1CCN(c2nc(=O)n(-c3c(C)ccnc3C(C)C)c3nc(-c4c(O)cccc4F)c(F)cc23)C(C)C1` (configuration not stated) + Cc1cccc(N(C)C(=O)C2C(O)CCN2c2nc(C)cc(C(F)(F)F)c2C#N)c1, the viability, T/C is 91.1%.

Consider `CCc1cc2c(N3CCc4c(cc(Cn5ccnc5)cc4-c4cn(C)nc4C(F)(F)F)C3=O)cc(C)nc2c(OC)n1` + Cc1cccc(N(C)C(=O)C2C(O)CCN2c2nc(C)cc(C(F)(F)F)c2C#N)c1, for which the viability, T/C is 89.2%.

Consider `COc1cc2cc(C(=O)CCC(=O)O)sc2cc1OC` + Cc1cccc(N(C)C(=O)C2C(O)CCN2c2nc(C)cc(C(F)(F)F)c2C#N)c1, for which the viability, T/C is 108%.

The same assay, now with this note: second compound 10 µM; first compound 0.1 µM; stronger effect = lower value.
In the case of `C#Cc1c(F)ccc2cc(O)cc(-c3ncc4c(N5CC6CCC(C5)N6)nc(OCC56CCCN5CC(F)C6)nc4c3F)c12` (configuration not stated) + Cc1cccc(N(C)C(=O)C2C(O)CCN2c2nc(C)cc(C(F)(F)F)c2C#N)c1, the viability, T/C is 71.4%.

Regarding `C=CC(=O)N1CCN(c2nc(=O)n(-c3c(C)ccnc3C(C)C)c3nc(-c4c(O)cccc4F)c(F)cc23)C(C)C1` (configuration not stated) + Cc1cccc(N(C)C(=O)C2C(O)CCN2c2nc(C)cc(C(F)(F)F)c2C#N)c1, the viability, T/C is 74.8%.

`CCc1cc2c(N3CCc4c(cc(Cn5ccnc5)cc4-c4cn(C)nc4C(F)(F)F)C3=O)cc(C)nc2c(OC)n1` + Cc1cccc(N(C)C(=O)C2C(O)CCN2c2nc(C)cc(C(F)(F)F)c2C#N)c1: the viability, T/C was 88.3%.

As for `COc1cc2cc(C(=O)CCC(=O)O)sc2cc1OC` + Cc1cccc(N(C)C(=O)C2C(O)CCN2c2nc(C)cc(C(F)(F)F)c2C#N)c1, the viability, T/C is 88.5%.

Staying with this assay, now noted: second compound 10 µM; first compound 0.316 µM; stronger effect = lower value.
Turning to `C#Cc1c(F)ccc2cc(O)cc(-c3ncc4c(N5CC6CCC(C5)N6)nc(OCC56CCCN5CC(F)C6)nc4c3F)c12` (configuration not stated) + Cc1cccc(N(C)C(=O)C2C(O)CCN2c2nc(C)cc(C(F)(F)F)c2C#N)c1, the viability, T/C was 65.8%.

For `C=CC(=O)N1CCN(c2nc(=O)n(-c3c(C)ccnc3C(C)C)c3nc(-c4c(O)cccc4F)c(F)cc23)C(C)C1` (configuration not stated) + Cc1cccc(N(C)C(=O)C2C(O)CCN2c2nc(C)cc(C(F)(F)F)c2C#N)c1, the viability, T/C was 82.5%.

For the molecule `CCc1cc2c(N3CCc4c(cc(Cn5ccnc5)cc4-c4cn(C)nc4C(F)(F)F)C3=O)cc(C)nc2c(OC)n1` + Cc1cccc(N(C)C(=O)C2C(O)CCN2c2nc(C)cc(C(F)(F)F)c2C#N)c1, the viability, T/C is 109%.

Turning to `COc1cc2cc(C(=O)CCC(=O)O)sc2cc1OC` + Cc1cccc(N(C)C(=O)C2C(O)CCN2c2nc(C)cc(C(F)(F)F)c2C#N)c1, the viability, T/C was 78.5%.

Still in this assay, the particulars now being: second compound 10 µM; first compound 1 µM; stronger effect = lower value.
On to `C#Cc1c(F)ccc2cc(O)cc(-c3ncc4c(N5CC6CCC(C5)N6)nc(OCC56CCCN5CC(F)C6)nc4c3F)c12` (configuration not stated) + Cc1cccc(N(C)C(=O)C2C(O)CCN2c2nc(C)cc(C(F)(F)F)c2C#N)c1, for which the viability, T/C is 69.7%.

As for `C=CC(=O)N1CCN(c2nc(=O)n(-c3c(C)ccnc3C(C)C)c3nc(-c4c(O)cccc4F)c(F)cc23)C(C)C1` (configuration not stated) + Cc1cccc(N(C)C(=O)C2C(O)CCN2c2nc(C)cc(C(F)(F)F)c2C#N)c1, the viability, T/C is 100%.

On to `CCc1cc2c(N3CCc4c(cc(Cn5ccnc5)cc4-c4cn(C)nc4C(F)(F)F)C3=O)cc(C)nc2c(OC)n1` + Cc1cccc(N(C)C(=O)C2C(O)CCN2c2nc(C)cc(C(F)(F)F)c2C#N)c1, for which the viability, T/C was 144%.

Turning to `COc1cc2cc(C(=O)CCC(=O)O)sc2cc1OC` + Cc1cccc(N(C)C(=O)C2C(O)CCN2c2nc(C)cc(C(F)(F)F)c2C#N)c1, the viability, T/C was 80.1%.

Staying with this assay, now noted: second compound 10 µM; first compound 3.16 µM; stronger effect = lower value.
With `C#Cc1c(F)ccc2cc(O)cc(-c3ncc4c(N5CC6CCC(C5)N6)nc(OCC56CCCN5CC(F)C6)nc4c3F)c12` (configuration not stated) + Cc1cccc(N(C)C(=O)C2C(O)CCN2c2nc(C)cc(C(F)(F)F)c2C#N)c1, the viability, T/C is 73%.

For the molecule `C=CC(=O)N1CCN(c2nc(=O)n(-c3c(C)ccnc3C(C)C)c3nc(-c4c(O)cccc4F)c(F)cc23)C(C)C1` (configuration not stated) + Cc1cccc(N(C)C(=O)C2C(O)CCN2c2nc(C)cc(C(F)(F)F)c2C#N)c1, the viability, T/C was 106%.

As to `CCc1cc2c(N3CCc4c(cc(Cn5ccnc5)cc4-c4cn(C)nc4C(F)(F)F)C3=O)cc(C)nc2c(OC)n1` + Cc1cccc(N(C)C(=O)C2C(O)CCN2c2nc(C)cc(C(F)(F)F)c2C#N)c1, the viability, T/C is 83.7%.

As to `COc1cc2cc(C(=O)CCC(=O)O)sc2cc1OC` + Cc1cccc(N(C)C(=O)C2C(O)CCN2c2nc(C)cc(C(F)(F)F)c2C#N)c1, the viability, T/C was 72.3%.

The same assay, now with this note: second compound 10 µM; first compound 10 µM; stronger effect = lower value.
Regarding `C#Cc1c(F)ccc2cc(O)cc(-c3ncc4c(N5CC6CCC(C5)N6)nc(OCC56CCCN5CC(F)C6)nc4c3F)c12` (configuration not stated) + Cc1cccc(N(C)C(=O)C2C(O)CCN2c2nc(C)cc(C(F)(F)F)c2C#N)c1, the viability, T/C was 17.2%.

Consider `C=CC(=O)N1CCN(c2nc(=O)n(-c3c(C)ccnc3C(C)C)c3nc(-c4c(O)cccc4F)c(F)cc23)C(C)C1` (configuration not stated) + Cc1cccc(N(C)C(=O)C2C(O)CCN2c2nc(C)cc(C(F)(F)F)c2C#N)c1, for which the viability, T/C is 76.7%.

`CCc1cc2c(N3CCc4c(cc(Cn5ccnc5)cc4-c4cn(C)nc4C(F)(F)F)C3=O)cc(C)nc2c(OC)n1` + Cc1cccc(N(C)C(=O)C2C(O)CCN2c2nc(C)cc(C(F)(F)F)c2C#N)c1: the viability, T/C is 70.8%.

With `COc1cc2cc(C(=O)CCC(=O)O)sc2cc1OC` + Cc1cccc(N(C)C(=O)C2C(O)CCN2c2nc(C)cc(C(F)(F)F)c2C#N)c1, the viability, T/C was 65.6%.

For the origin of these results see PubChem BioAssay AID1963831 (Molecular Pharmacology Branch, DTP, NCI, 2024).
